Test results: publication PMC8329197, “Compounds targeting OSBPL7 increase ABCA1-dependent cholesterol efflux preserving kidney function in two models of kidney disease” (Nature Communications, 2021)
Where “and” joins values, the source holds several entries; their conditions need not be identical. Identical values can stand only once.

How the values were obtained:
human THP1 macrophages = assay: apoAI-mediated (ABCA1) cholesterol efflux from cholesterol-loaded THP1 macrophages; type: cell-based; set-up: ABCA1 Efflux %: dose or concentration left out as unconfirmed; details: for ApoA1-mediated Cholesterol Efflux (Fold increase over vehicle control), mean / ApoA1-mediated Cholesterol Efflux (%) / ApoA1-mediated Cholesterol Efflux (Fold increase over vehicle control): 5 µM; for ApoA1-mediated Cholesterol Efflux (Fold increase over vehicle control), mean / ApoA1-mediated Cholesterol Efflux (%) / ApoA1-mediated Cholesterol Efflux (Fold increase over vehicle control) / ABCA1 Efflux active/ inactive: THP1 cells; for ApoA1-mediated Cholesterol Efflux (Fold increase over vehicle control), mean: mean of 3; for ApoA1-mediated Cholesterol Efflux (%) / ApoA1-mediated Cholesterol Efflux (Fold increase over vehicle control): single experiments; for Induction of ABCA1 cholesterol efflux: THP1 cells (Fig. 3a, 4a); for ABCA1 percentage of induction, average: average of 3; for ABCA1 Efflux %: average(SEM); for ABCA1 percentage of induction: single experiments (3 per compound); for ABCA1 Efflux active/ inactive: vs. the effect of T1317
ABCA1 mRNA = ABCA1 mRNA by quantitative real-time PCR in cholesterol-loaded THP1 macrophages; type: cell-based, human; details: 24 h; for Effect on ABCA1 mRNA: up to 25 μM, THP1 macrophages
Description: RNA was isolated using RNEasy Plus Mini kit (Qiagen). Reverse transcription was performed using qScript cDNA Super Mix (Quantabio) according to the manufacturer’s instructions. Quantitative real-time PCR was performed using TaqMan Fast Universal PCR Master Mix and Taqman gene expression assays (Supplementary Table 7).

OSBPL7 = tested on: T1, OSBPL7; assay: Competition with ^3H-Cpd K UV cross-linking to FLAG-tagged OSBPL7 in HEK293 cells (immunoprecipitation, autoradiography); type: binding, human; set-up: OSBP7 percentage of inhibition / OSBP7 percentage of inhibition, average: concentration or dose not given beside the values; OSBPL7 Competition %: dose or concentration left out as unconfirmed; details: for OSBP7 percentage of inhibition, average: average of 3; for OSBPL7 Competition %: average(SEM); for OSBP7 percentage of inhibition: single experiments (3 per compound)
T1 construct: Plasmids expressing each as a full-length protein with a C-terminal FLAG tag were obtained; expressed in transfected cells; host or cells: HEK293
Description: Briefly, a plasmid expressing a candidate target of interest fused with a FLAG tag was transfected into HEK293 cells. After 24 h, tritiated compound K at a concentration capable of inducing ABCA1-mediated cholesterol efflux (1.0 μM) was added for 3 h, then the live cells were exposed to UV-light (ʎ = 336 nm) to query potential compound/target cross-linking in situ. Cell lysates were prepared, the expressed protein was then selectively immunoprecipitated using an anti-FLAG antibody coupled to sepharose beads, bound proteins were separated by SDS-PAGE, and two identical blots were prepared and probed by western blot and by autoradiography to detect protein expression and presence or absence of compound crosslinking, respectively. The flow chart of this screen is illustrated in Fig. 2. Figure 2d illustrates the ability of Cpd A and Cpd G to displace tritiated Cpd K from overexpressed and immunoprecipitated OSBPL7. Figure 3b illustrates the use of this assay to detect binding of tritiated Cpd K to overexpressed and immunoprecipitated variants of OSBPL7 containing point mutations in the predicted oxysterol binging pocket of OSBPL7. The advantages of this method are: i. the use of plasmid transfection leads to high expression of each candidate which reduces the likelihood to miss an authentic target for those which may be expressed at low endogenous levels, ii. the interaction of the chemical probe with its target occurs in a relevant biological context (live cells) at a pharmacologically active concentration, and iii. immunoprecipitation allows the expressed protein of interest to be purified from background proteins, substantially improving the signal/noise ratio.

[1] = biological target: human cannabinoid 1 receptor (hCB1-R) (Homo sapiens, UniProt P21554); assay: Potency for binding to the CB1R in vitro (Ki); details: human CB1 receptor binding
normal human fibroblasts = assay: Cholesterol efflux to apoAI in normal human fibroblasts; details: for Cholesterol Efflux (%), Normal Fibroblasts: efflux to apoAI, Cpd H, Cpd J 10 μM, single experiments
[2] = tested on: Tangier (ABCA1-deficient) fibroblasts; assay: Cholesterol efflux in Tangier (ABCA1-deficient) fibroblasts; details: for Cholesterol Efflux (%), Tangier Fibroblasts: ABCA1-deficient, Cpd H, Cpd J 10 μM, single experiments
Col4a3 KO mice = assay: Alport syndrome model: ACR, serum creatinine, BUN, body weight (also vs ramipril); details: individual mouse values
[3] = 8-week old Col4a3 KO mice, 28 days treatment starting at the age of 4 weeks

human cannabinoid 1 receptor (hCB1-R), sequence (P21554 whole entry): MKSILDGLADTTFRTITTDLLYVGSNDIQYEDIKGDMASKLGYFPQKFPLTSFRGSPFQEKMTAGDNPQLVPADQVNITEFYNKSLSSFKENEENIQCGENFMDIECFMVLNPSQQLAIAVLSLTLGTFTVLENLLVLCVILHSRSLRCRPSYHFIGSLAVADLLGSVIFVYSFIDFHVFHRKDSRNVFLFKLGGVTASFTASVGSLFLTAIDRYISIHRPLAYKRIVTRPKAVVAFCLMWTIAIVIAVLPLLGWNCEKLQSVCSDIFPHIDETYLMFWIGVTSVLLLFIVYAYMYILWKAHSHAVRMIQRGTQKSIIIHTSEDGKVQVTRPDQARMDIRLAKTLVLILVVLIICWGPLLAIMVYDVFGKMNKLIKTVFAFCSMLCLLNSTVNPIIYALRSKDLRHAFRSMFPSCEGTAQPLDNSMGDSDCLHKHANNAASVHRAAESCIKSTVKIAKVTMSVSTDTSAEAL

Row | SMILES | ABCA1 percentage of induction, average (human THP1 macrophages) | ABCA1 Efflux % (human THP1 macrophages) | ABCA1 percentage of induction (human THP1 macrophages) | OSBP7 percentage of inhibition, average (OSBPL7) | OSBPL7 Competition % (OSBPL7) | OSBP7 percentage of inhibition (OSBPL7) | ABCA1 Efflux active/ inactive (human THP1 macrophages) | other results
1 | CCCCC/C=C\C/C=C\C/C=C\C/C=C\CCCC(=O)NCCCl [ACEA, arachidonyl choloroethylamine, reference compound] | – | – | – | – | – | – | – | ApoA1-mediated Cholesterol Efflux (Fold increase over vehicle control), mean (human THP1 macrophages): 0.962 fold; ApoA1-mediated Cholesterol Efflux (%) (human THP1 macrophages): 3% and 2.5% and 1.4%; ApoA1-mediated Cholesterol Efflux (Fold increase over vehicle control) (human THP1 macrophages): 1.047 fold and 1.044 fold and 0.796 fold; Induction of ABCA1 cholesterol efflux (human THP1 macrophages): inactive
2 | O=C(N[C@@H]1CCCC[C@H]1O)c1cnc(OCC2CC2)c(-c2ccc(Cl)cc2)c1 [Cpd H] | 106% | 106(6.8) % | 112% and 92% and 113% | 55% | 55(5.0) % | 49% and 51% and 65% | – | Effect on ABCA1 mRNA (ABCA1 mRNA): no effect; EC50 (human THP1 macrophages; THP-1, apoAI-dependent cholesterol efflux from human THP1 cells): 120 nM; Ki [1]: 11.4 ± 4.5 nM; Cholesterol efflux to apoAI from normal fibroblasts (normal human fibroblasts): increase cholesterol efflux to apoAI from normal; Cholesterol Efflux (%), Normal Fibroblasts (normal human fibroblasts): 3.97% and 4.44% and 4.67%; Cholesterol efflux to apoAI from ABCA1-deficient fibroblasts [2]: not from ABCA1-deficient fibroblasts; Cholesterol Efflux (%), Tangier Fibroblasts [2]: 1.75% and 1.88% and 1.89%
3 | O=C(N[C@@H]1CCCC[C@H]1O)c1cnc(OCC(F)(F)F)c(-c2ccc(Cl)cc2)c1 [Cpd J] | 100% | 100(15.0) % | 83% and 130% and 87% | 40% | 40(12.2) % | – | – | Effect on ABCA1 mRNA (ABCA1 mRNA): no effect; Ki [1]: 12.4 ± 6.7 nM; Cholesterol efflux to apoAI from normal fibroblasts (normal human fibroblasts): increase cholesterol efflux to apoAI from normal; Cholesterol Efflux (%), Normal Fibroblasts (normal human fibroblasts): 5.75% and 6.18% and 6.91%; Cholesterol efflux to apoAI from ABCA1-deficient fibroblasts [2]: not from ABCA1-deficient fibroblasts; Cholesterol Efflux (%), Tangier Fibroblasts [2]: 1.8% and 2.06% and 2.65%
4 | O=C(N[C@H]1CCCC[C@H]1O)c1cnc(OCC(F)(F)F)c(-c2ccc(Cl)c(Cl)c2)c1 [Cpd L] | 104% | 104(18.8) % | 94% and 77% and 140% | 53% | 53(4.7) % | 55% and 44% and 60% | – | Ki [1]: 7000 nM
5 | O=C(Nc1cnc(OCC(F)(F)F)c(-c2ccc(Cl)cc2)c1)c1cccnc1 [Cpd M] | 113% | 133(42.5) % | – | 98% | 98(5.2) % | 107% and 97% and 89% | – | Ki [1]: > 10000 nM
6 | CCCCNC(=O)CCc1ccc(-c2cc(C(=O)N[C@@H]3CCCC[C@H]3O)cnc2OCC2CC2)cc1 [Cpd N] | 24% | 24(5.0) % | – | 38% | 38(9.5) % | – | Inactive | –
7 | Cn1cccc(NC(=O)c2cc(-c3ccc(Cl)cc3)c(OCC(F)(F)F)cn2)c1=O [Cpd P] | 3.67% | 4(0.9) % | 4% and 5% and 2% | 0% | 0(0) % | 0% | Inactive | –
8 | O=C(N[C@@H]1CCCOC1=O)c1cc(-c2ccc(Cl)cc2)c(OCC(F)(F)F)cn1 [Cpd Q] | 2% | 2(0.6) % | 1% and 2% and 3% | 8% | 8(2.2) % | 12% and 6% and 5% | Inactive | –
9 | Cc1cc(-c2cc(NC(=O)c3cccnc3)cnc2OCC(F)(F)F)ccn1 [Cpd R] | -10% | -10(5) % | – | 17% | 17(5.0) % | – | Inactive | –
10 | Cc1cncc(-c2cc(NC(=O)c3cccnc3)cnc2OCC(F)(F)F)c1 [Cpd S] | 2.67% | 3(0.8) % | 1% and 3% and 4% | 0.333% | 0(0.3) % | 0% and 1% | Inactive | –
11 | CCOC(=O)C(CCc1ccccc1)NC(C)C(=O)N1C(C(=O)O)CC2CCCC21 (stereo not drawn) [Ramp] | – | – | – | – | – | – | – | BUN (Col4a3 KO mice; [3]): 33 mg/dL and 30 mg/dL and 43 mg/dL and 36 mg/dL and 26 mg/dL and 46 mg/dL and 42 mg/dL and 39 mg/dL; Serum Creatinine (Col4a3 KO mice; [3]): 1.99 µg/mL and 0.12 µg/mL and 2 µg/mL and 3.6 µg/mL and 0.9 µg/mL and 0.28 µg/mL and 1.66 µg/mL
12 | O=S(=O)(c1ccccc1)N(CC(F)(F)F)c1ccc(C(O)(C(F)(F)F)C(F)(F)F)cc1 [T1317, reference compound] | – | – | – | – | – | – | – | Upregulation of ABCA1 mRNA (ABCA1 mRNA; cholesterol-loaded THP1 macrophages): ~ 5 fold; Cholesterol efflux to apoAI from normal fibroblasts (normal human fibroblasts): increase cholesterol efflux to apoAI from normal; Cholesterol Efflux (%), Normal Fibroblasts (normal human fibroblasts): 5.16% and 5.7% and 5.82%; Cholesterol efflux to apoAI from ABCA1-deficient fibroblasts [2]: not from ABCA1-deficient fibroblasts; Cholesterol Efflux (%), Tangier Fibroblasts [2]: 2.04% and 2.39% and 2.47%
13 | Cc1c(C(=O)c2cccc3ccccc23)c2cccc3c2n1[C@H](CN1CCOCC1)CO3 [WIN55-212-2, reference compound] | – | – | – | – | – | – | – | ApoA1-mediated Cholesterol Efflux (Fold increase over vehicle control), mean (human THP1 macrophages): 0.882 fold; ApoA1-mediated Cholesterol Efflux (%) (human THP1 macrophages): 2.57% and 2.5% and 1.3%; ApoA1-mediated Cholesterol Efflux (Fold increase over vehicle control) (human THP1 macrophages): 0.895 fold and 1.016 fold and 0.735 fold; Induction of ABCA1 cholesterol efflux (human THP1 macrophages): inactive
14 | CCOC(=O)[C@H](CCc1ccccc1)N[C@@H](C)C(=O)N1[C@H](C(=O)O)C[C@@H]2CCC[C@@H]21 [ramipril, reference compound] | – | – | – | – | – | – | – | Albumin to Creatinine ratio (Col4a3 KO mice; spot urines, 8-week old Col4a3 KO mice treated from the age of 4 weeks, listed as Ram): 31.85 mg Alb. /mg Cre and 41.0281 mg Alb. /mg Cre and 31.514 mg Alb. /mg Cre and 21.7026 mg Alb. /mg Cre and 31.192 mg Alb. /mg Cre
15 | Cc1c(C(=O)NN2CCCCC2)nn(-c2ccc(Cl)cc2Cl)c1-c1ccc(Cl)cc1 [rimonabant, reference compound] | 0% | 0(0) % | 0% | 0% | 0(0) % | 0% | Inactive | ApoA1-mediated Cholesterol Efflux (%) (human THP1 macrophages): 3.95% and 2.4% and 1.2%; Induction of ABCA1 cholesterol efflux (human THP1 macrophages): did not induce ABCA1 cholesterol efflux
